Assay results taken from ChEMBL document CHEMBL1201862, “PubChem BioAssay data set” (2004).
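Interpolation was linear, between the two tested concentrations surrounding the appropriate level; five concentrations were tested over 48 hours in 96-well plates. At the GI50, growth is halved.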 The source made the active and inactive calls. Cut-off read from the data, not from the text of the source: active = GI50 up to about 1.1 µM and inactive = higher.

Legend:
Assay in all cases: DTP human tumour cell line panel, 48 h
M19-MEL = tested on: M19-MEL
SNB-19 = tested on: SNB-19
NCI-H460 = tested on: NCI-H460
HCC 2998 = tested on: HCC 2998
UO-31 = tested on: UO-31
K562 = tested on: K562
IGROV-1 = tested on: IGROV-1
EKVX = tested on: EKVX
SF-539 = tested on: SF-539
RPMI-8226 = tested on: RPMI-8226
T47D = tested on: T47D
SW-620 = tested on: SW-620
PC-3 = tested on: PC-3
Hs-578T = tested on: Hs-578T
OVCAR-5 = tested on: OVCAR-5
BT-549 = tested on: BT-549
KM12 = tested on: KM12
TK-10 = tested on: TK-10
DMS-114 = tested on: DMS-114

Compound	GI50 (M19-MEL)	GI50 (SNB-19)	GI50 (NCI-H460)	GI50 (HCC 2998)	GI50 (UO-31)	GI50 (K562)	GI50 (IGROV-1)	GI50 (EKVX)	GI50 (SF-539)	GI50 (RPMI-8226)	GI50 (T47D)	GI50 (SW-620)	GI50 (PC-3)	GI50 (Hs-578T)	GI50 (OVCAR-5)	GI50 (BT-549)	GI50 (KM12)	GI50 (TK-10)	GI50 (DMS-114)
Cc1ccccc1NC(=O)C(=O)C1CN(c2ccccc2)N=C1N (stereo not given)	> 100 µM (inactive)	> 100 µM (inactive)	> 100 µM (inactive)	> 100 µM (inactive)	> 100 µM (inactive)	> 100 µM (inactive)	> 100 µM (inactive)	> 100 µM (inactive)	> 100 µM (inactive)	–	–	–	–	–	–	–	–	–	–
CCCCCCC/C=C1\CCC(CN(C)C)C1=O (stereo not given)	–	16.9 µM (inactive)	19.1 µM (inactive)	17.7 µM (inactive)	15.6 µM (inactive)	2.83 µM (inactive)	19.1 µM (inactive)	15.5 µM (inactive)	16.6 µM (inactive)	0.968 µM (active)	2.98 µM (inactive)	6.19 µM (inactive)	14.5 µM (inactive)	3.88 µM (inactive)	19.8 µM (inactive)	14.7 µM (inactive)	4.07 µM (inactive)	7.48 µM (inactive)	–
Cc1c(Cl)nc(Cl)nc1Cl	–	3.81 µM (inactive)	5.71 µM (inactive)	1.2 µM (inactive)	0.409 µM (active)	0.6 µM (active)	3.01 µM (inactive)	1.9 µM (inactive)	2.43 µM (inactive)	2.38 µM (inactive)	1.58 µM (inactive)	1.27 µM (inactive)	2 µM (inactive)	3.12 µM (inactive)	1.88 µM (inactive)	3.65 µM (inactive)	2.44 µM (inactive)	3.51 µM (inactive)	–
CC1CCC2(CC1)NC1=C(CC(C)CC1)C1=C2CC(C)CC1 (stereo not given)	–	23.5 µM (inactive)	23.8 µM (inactive)	18.6 µM (inactive)	20.3 µM (inactive)	17.2 µM (inactive)	31.3 µM (inactive)	39.1 µM (inactive)	22.1 µM (inactive)	23.3 µM (inactive)	24.3 µM (inactive)	18.9 µM (inactive)	16.1 µM (inactive)	26.9 µM (inactive)	18.7 µM (inactive)	19.1 µM (inactive)	18.1 µM (inactive)	26.5 µM (inactive)	–
Cc1ccc2c(c1)C1(OC(=O)c3ccccc31)c1ccc(F)cc1O2 (stereo not given)	57 µM (inactive)	–	–	66.1 µM (inactive)	20.3 µM (inactive)	35 µM (inactive)	> 100 µM (inactive)	59 µM (inactive)	–	24.2 µM (inactive)	–	34.6 µM (inactive)	–	–	> 100 µM (inactive)	–	51.3 µM (inactive)	> 100 µM (inactive)	34.6 µM (inactive)
CC(C)=CCC/C(C)=C/CC/C(C)=C/CC/C(=C/CC/C(C)=C\CC/C(C)=C/CC/C(C)=C/CC/C(C)=C/Cc1cc(O)ccc1O)CO	–	7.1 µM (inactive)	9.57 µM (inactive)	9.93 µM (inactive)	7.98 µM (inactive)	17.7 µM (inactive)	2.86 µM (inactive)	12.1 µM (inactive)	0.824 µM (active)	1.82 µM (inactive)	6.05 µM (inactive)	8.71 µM (inactive)	4.2 µM (inactive)	2.51 µM (inactive)	25.4 µM (inactive)	3.6 µM (inactive)	1.67 µM (inactive)	6.61 µM (inactive)	–
CC(C)(C)C1=NO[C@H]2[C@@H](NC(=O)c3ccccc3)CC[C@@H]12	> 100 µM (inactive)	> 100 µM (inactive)	> 100 µM (inactive)	> 100 µM (inactive)	> 100 µM (inactive)	> 100 µM (inactive)	> 100 µM (inactive)	–	> 100 µM (inactive)	> 100 µM (inactive)	–	> 100 µM (inactive)	–	–	> 100 µM (inactive)	–	> 100 µM (inactive)	> 100 µM (inactive)	> 100 µM (inactive)
Cc1ccc(S(=O)(=O)NC(=O)Nc2nc(Cl)cc(Cl)n2)cc1	> 100 µM (inactive)	> 100 µM (inactive)	> 100 µM (inactive)	28.3 µM (inactive)	> 100 µM (inactive)	62.2 µM (inactive)	> 100 µM (inactive)	> 100 µM (inactive)	> 100 µM (inactive)	> 100 µM (inactive)	–	> 100 µM (inactive)	–	–	> 100 µM (inactive)	–	> 100 µM (inactive)	> 100 µM (inactive)	96.4 µM (inactive)
CN(C)c1nc2sc3c(c2c(=O)o1)CCCC3	–	25.6 µM (inactive)	44.5 µM (inactive)	> 100 µM (inactive)	7.46 µM (inactive)	32.4 µM (inactive)	72.8 µM (inactive)	25.5 µM (inactive)	43.3 µM (inactive)	35.8 µM (inactive)	26.8 µM (inactive)	54.8 µM (inactive)	34.4 µM (inactive)	16.7 µM (inactive)	60.1 µM (inactive)	12.3 µM (inactive)	21.6 µM (inactive)	> 100 µM (inactive)	–
